These results are taken from US20100291196A1, “METHOD OF TREATMENT OF AUTISM SPECTRUM DISORDER WITH LIPOSOMAL REDUCED GLUTATHIONE” (priority 2005, published 2010).

In one data set the test system is children with autism. The note with it: cited from earlier work.
The test system of data set [1] is methionine cycle function. The conditions noted are these: for improvement with known intermediates and support supplements of the methionine cycle: Case 3, supplements taken together in the month before liposomal glutathione; for blood pressure after initiating the therapies / how the patient felt a few days after initiating the therapies: in vivo. An excerpt:
The elevation of histamine is also an indicator of decreased methylation function as it is inactivated by histamine-methyl transferase.
During the month prior to evaluation the MM initiated therapy with SAMe, folate, betaine (trimethyl glycine), N-acetylcysteine and B12 by injection and oral glutathione (neat, not in the form of the invention).

A further data set concerns children. In words: Practical experience and clinical observation of children using methylcobalamin by injection. The data set is classed as in vivo, human.
The conditions of data set [2]: 3 grams by oral ingestion; cited from earlier work.
[3] abbreviates: 800 μg folinic acid and 1000 mg betaine twice daily, 3 months.
The mark [4] stands for this setting: after a month of injection therapy.
Setting [5] is: second intervention, injectable methylcobalamin added to folinic acid and betaine.

Consider `Nc1nc(=O)c2c([nH]1)NCC(CNc1ccc(C(=O)N[C@@H](CCC(=O)O)C(=O)O)cc1)N2C=O` (mixture of isomers) [folinic acid], for which, in the data set on children with autism (setting [3]), the “methionine cycle metabolites versus concentrations in controls” value is reported as “effective in normalizing” and the “total GSH (tGSH) or GSSG concentrations or tGSH:GSSG ratio” value is given as “improved but did not normalize”.
For `C[S+](CC[C@H](N)C(=O)[O-])C[C@H]1O[C@@H](n2cnc3c(N)ncnc32)[C@H](O)[C@@H]1O` (stereo partly shown) [SAMe, S-Adenosylmethionine], in data set [1], the “improvement with known intermediates and support supplements of the methionine cycle” value (shortened to “improvement”) is “did not improve”; the “blood pressure after initiating the therapies” value (shortened to “blood pressure”) is reported as 170/120; the “how the patient felt a few days after initiating the therapies” value (from here on “how the patient felt a few days”) is listed as “felt worse”.
On the same counts, the results for `CC(=O)N[C@@H](CS)C(=O)O` [N-acetylcysteine] are “did not improve”, 170/120 and “felt worse”.
On the same counts, the results for cyanocobalamin [B12 (cyanocobalamin)] are “did not improve”, 170/120 and “felt worse”.
Regarding `C[N+](C)(C)CC(=O)O` [betaine, trimethyl glycine], in data set [1], the “blood pressure” value was 170/120 and the “how the patient felt a few days” value is “felt worse”.
As to `Nc1nc2ncc(CNc3ccc(C(=O)N[C@@H](CCC(=O)O)C(=O)O)cc3)nc2c(=O)[nH]1` [folic acid], in data set [1], the “improvement” value is listed as “did not improve”; the “blood pressure” value is reported as 170/120; the “how the patient felt a few days” value is listed as “felt worse”.
As to `C/C1=C2/[N-][C@H]([C@H](CC(N)=O)[C@@]2(C)CCC(=O)NC[C@@H](C)OP(=O)([O-])O[C@H]2[C@@H](O)[C@@H](n3cnc4cc(C)c(C)cc43)O[C@@H]2CO)[C@]2(C)N=C(/C(C)=C3N=C(/C=C4N=C1[C@@H](CCC(N)=O)C\4(C)C)[C@@H](CCC(N)=O)[C@]\3(C)CC(N)=O)[C@@H](CCC(N)=O)[C@]2(C)CC(N)=O.[CH3-].[Co+3]` [methylcobalamin], the irritability result with children (many children, methylcobalamin by injection) was “substantially increased irritability”. The SAH result in the data set on children (methylcobalamin by itself, preliminary data) is recorded as “can cause an increase”. In addition, in the data set on children with autism (setting [4]), the GSSG entry was “decreased”, the “level of total GSH (tGSH)” value is “increased” and the “tGSH:GSSG ratio (glutathione redox profile)” value is reported as “normalization”. For the same compound, the speech and cognition result with children with autism (injection therapy, children with autism) was “improvement in speech and cognition”. In addition, in the data set with children with autism (setting [5]), the “concentration of adenosine and GSSG” value is recorded as “further decrease”; the “concentrations of methionine, cysteine, tGSH and SAM:SAH and tGSH:GSSG ratios” value was “further increase”.
Regarding `N[C@@H](CCC(=O)N[C@@H](CS)C(=O)NCC(=O)O)C(=O)O` [glutathione, gamma-glutamyl-cysteinyl-glycine], in data set [1], the “improvement” value is “did not improve”; the “blood pressure” value was 170/120; the “how the patient felt a few days” value is given as “felt worse”. Moreover, the plasma glutathione levels result in data set [2] was “does not elevate”.
